According to PubChem BioAssay AID179 (DTP/NCI, 2004):
Active and inactive are the calls of the source.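 Rule for the calls: active = compounds giving half or more protection of infected cells from virus-caused growth loss, again on retest; inactive = the rest.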

Tested on: CEM cells HIV-1 protection, formazan growth assay
Experiment: NCI AIDS Antiviral Assay
Details: for IC50: measured here: growth of uninfected CEM cells
Outline: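 Screen of anti-HIV-1 activity in human CEM cells using a formazan-based growth measurement at five drug concentrations. Hits with 50% or greater protection were repeated, and confirmation required reproducible complete protection.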

| Structure (SMILES) | EC50 | IC50 | outcome |
| --- | --- | --- | --- |
| N#C/C(c1nc2ccccc2[nH]1)=c1\s/c(=C/c2ccc(Cl)cc2)c(=O)n1-c1ccccc1 | > 200 µM | 107 µM |  |
| COc1cc2oc(-c3ccc(O)cc3O)c(CC=C(C)C)c(=O)c2c(O)c1/C=C/C(C)C | > 200 µM | 4.79 µM |  |
| COc1cc(O)c2c(=O)c(OC)c(-c3ccc4c(c3)OCO4)oc2c1 | > 200 µM | > 200 µM |  |
| O=[As](O)(O)c1ccc(Cl)cc1Cl | > 200 µM | 95.5 µM |  |
| CCOP(=O)(OCC)C1CC(O)C(=O)N1 (stereo not given) | > 200 µM | > 200 µM |  |
| CC1(C)OC(=O)C(=Cc2cccc(C#N)c2)C(=O)O1 | > 708 µM | 41.7 µM |  |
| CC(=O)OC1/C=C(\C)C(OC(C)=O)C/C=C(/C)CCC2C(/C=C/C1=O)C2(C)C (stereo not given) | > 66.1 µM | > 66.1 µM |  |
| Cc1c(C#N)c2n(c1C)CCCC(=O)N2 | > 219 µM | > 219 µM |  |
| O=Cc1cc2c(cc1-c1cc3c(cc1C=O)OCO3)OCO2 | > 107 µM | > 107 µM |  |
| CN(C)CCCNC(=O)CCNC(=O)c1cc(NC(=O)c2cc(NC(=O)c3cc(NC(=O)c4nc(NC(=O)CCCNC(=O)c5cc(NC(=O)c6cc(NC(=O)c7cc(NC(=O)c8nccn8C)cn7C)cn6C)cn5C)cn4C)cn3C)cn2C)cn1C | > 141 µM | 24.5 µM |  |
| COc1nc(C(Cl)(Cl)Cl)c(Cl)c(OC)c1Cl | > 41.7 µM | > 41.7 µM |  |
| O=C1CC2CCCC(=O)C23CCC[C@H]13 (stereo not given in full) | > 324 µM | > 324 µM |  |
| CN(C)c1nc(=Nc2cccc(Cl)c2)ss1 |  |  | inactive |
| Cc1c(/C=N/NC(=S)Nc2cccc(Cl)c2)c(=O)n(-c2ccccc2)n1C | > 200 µM | > 200 µM |  |
| CC(=O)C12C[C@](C#N)(N3CCCCCC3)C1C=Cc1ccccc12 (stereo not given in full) | > 200 µM | > 200 µM |  |
| O=C1C=CC(=O)c2nc(-c3ccccc3)c(-c3ccccc3)nc21 | 0.363 µM | 12 µM |  |
| CCOC(=O)C(NC(=O)C(CCCCNP(=O)(OCC)OCC)NC(=O)C(C)NC(C)=O)C(C)C (stereo not given) | > 200 µM | > 200 µM |  |
| CCN(CC)CC(=O)Nc1cc(Cl)ccc1OC | > 200 µM | 178 µM |  |
| Cc1cn(CCCCOC(=O)NC(CCCN=C(N)N)C(=O)O)c(=O)[nH]c1=O (stereo not given) | > 200 µM | > 200 µM |  |
| OCCNNCCO | > 200 µM | > 200 µM |  |
| Cc1cn(C2CC(N=[N+]=[N-])C(COP(=O)(OCC(=O)c3ccccc3)OCC(=O)c3ccccc3)O2)c(=O)[nH]c1=O (stereo not given) | 0.00741 µM | 2 µM |  |
| O=C1CCCC/C1=C\c1ccc(Cl)c(Cl)c1 |  |  | inactive |
| Cn1c(=O)c2nc(-c3cccnc3)cnc2n(C)c1=O | > 200 µM | > 200 µM |  |

| Structure (SMILES) | EC50 | IC50 | outcome |
| --- | --- | --- | --- |
| O=C(Nc1ccc(C2=NCCN2)cc1)c1cccc(C(=O)Nc2ccc(C3=NCCN3)cc2)c1Cl | 49 µM | 155 µM |  |
| O=P(NC1CCCCC1)(NC1CCCCC1)NC1CCCCC1 | > 200 µM | > 200 µM |  |
| CC(C)CCC[C@@H](C)C1CCC2[C@@H]3CC=C4C[C@@H](C(=O)NCCN(C)C)CC[C@]4(C)C3CC[C@@]21C (stereo not given in full) |  |  | inactive |
| CC(CNCCCNCCNCCCNCO)[N+](=O)[O-] (stereo not given) |  |  | inactive |
| O=C1C2C(C(=O)N1c1ccccc1)C(c1ccccc1)N(c1ccccc1)C2c1ccccc1 (stereo not given) | > 22.4 µM | 15.8 µM |  |
| CCOC(=O)c1ccc(N2C(=O)c3cccc4cccc(c34)C2=O)c([N+](=O)[O-])c1 | > 100 µM | 37.2 µM |  |
| Cc1ncc2c(n1)-c1ccccc1OC2O (stereo not given) | > 200 µM | > 200 µM |  |
| O=C(O)CCCCCCCCCCCBr | 37.2 µM | 162 µM |  |
| O=C(CN1CCCCC1)Nc1ccc2c(c1)C1Oc3ccccc3CC1CO2 (stereo not given) |  |  | inactive |
| CC1(C)O[C@@H](CC/C=C/CO)[C@H](CC/C=C/CO)O1 |  |  | inactive |
| Cc1c(CNc2ccc(Cl)c(Cl)c2Cl)cnc2nc(N)nc(N)c12 | > 2 µM | 0.347 µM |  |
| O=C1NC2(CCN(Cc3ccccc3)CC2)Oc2ccccc21 | > 200 µM | > 200 µM |  |
| N#CC(C(=O)CCCC(=O)Nc1ccccc1[N+](=O)[O-])c1c(Cl)cccc1Cl (stereo not given) | > 309 µM | > 309 µM |  |
| O=Cc1cccc(/C=N/Nc2nnc(N/N=C/c3cccc(C=O)c3)c3ccccc23)c1 | > 200 µM | 28.8 µM |  |
| CC(=O)Nc1cc(Nc2cc(=O)[nH]c(=O)[nH]2)ccc1C | > 200 µM | > 200 µM |  |
| Cc1cn([C@@H]2O[C@H](CO[Si](C)(C)C(C)(C)C)[C@]3(O[C@H]3C(=O)NN)[C@H]2O[Si](C)(C)C(C)(C)C)c(=O)[nH]c1=O | > 200 µM | 3.63 µM |  |
| NC(=O)C(N)CC12CC3CC(CC(C3)C1)C2 (stereo not given) | > 200 µM | 39.8 µM |  |
| O=C(O)C1=CCCc2ccc3ccccc3c21 |  |  | inactive |
| COc1ccc(N2C(=O)C(N3C(=O)C=CC3=O)C2C=O)cc1 (stereo not given) | > 166 µM | > 166 µM |  |
| O=C(CCCN1CCC(Nc2ccccc2)(c2nnnn2C2CCCCC2)CC1)c1ccc(F)cc1 | > 200 µM | 75.9 µM |  |
| O=C1Nc2ccc(Cl)c(I)c2C1=O | > 61.7 µM | 35.5 µM |  |
| CCOC(=O)[C@H](O)[C@@H](O)C(=O)NCc1ccc(C(=O)c2ccccc2)cc1 | > 200 µM | > 200 µM |  |
| N#Cc1cccc(NC(=O)c2ccc(C(=O)O)c(C(=O)c3ccc(C(=O)O)c(C(=O)Nc4cccc(C#N)c4)c3)c2)c1 | > 170 µM | > 170 µM |  |

| Structure (SMILES) | EC50 | IC50 | outcome |
| --- | --- | --- | --- |
| C/C=C1\CN(C)C[C@@]2(C(=O)OC)Cc3c(n(OC)c4ccccc34)C(=O)C[C@@H]12 | > 135 µM | 97.7 µM |  |
| COC(=O)CCC=C(c1cc(Cl)c(OC)c(C(=O)OC)c1)c1cc(Cl)c(OC)c(C(=O)OC)c1 | > 200 µM | 44.7 µM |  |
| CC(=N\N)/C(C)=N/N=C(C)/C(C)=N/N=C(C)/C(C)=N/N=C(C)/C(C)=N/N | > 200 µM | 15.8 µM |  |
| CCC1(O)C(=O)OCc2c1cc1n(c2=O)Cc2cc3cc(OC)c(OC)cc3nc2-1 (stereo not given) | > 10 µM | 1.29 µM |  |
| OC1C2CCCC1C1(CCCCC1)C1CCCCC21O (stereo not given) |  |  | inactive |
| O=c1c2cc([N+](=O)[O-])ccc2sc2ccsc12 | > 97.7 µM | > 97.7 µM |  |
| CCOC(=O)C1SC(=Nc2ccc(Cl)cc2C)N=C1C (stereo not given) | > 32.4 µM | > 32.4 µM |  |
| CC1OC(c2ccc3c(c2O)C(=O)C2=C(C3=O)[C@H]3OC(=O)C[C@H]3O[C@@H]2C)CC(N(C)C)C1O (stereo not given in full) | > 107 µM | 0.0537 µM |  |
| CC(C)(C)C1CCC2c3c([nH]c4ccccc34)C3C(=O)N(c4ccccc4[N+](=O)[O-])C(=O)C3C2C1 (stereo not given) | > 200 µM | 36.3 µM |  |
| CC(C)(C)OC(=O)N[C@H]1CC2(C=C(Cl)C(=O)C(Cl)=C2)OC1=O |  |  | inactive |
| CCCCCNC(=O)CCCCCCCCCCCNC(=O)CCCCCCCCCCN1C=CC(=CC=C2C=CC(=O)C=C2)C=C1 |  |  | inactive |
| CC(=O)Nc1ccc(C2=N/C(=C\c3ccc(Cl)c(Cl)c3)C(=O)O2)cc1 | > 7.24 µM | > 7.24 µM |  |
| CNc1nc(SC)nc2c1S(=O)(=O)N=CN2 | > 263 µM | > 263 µM |  |
| Cc1cn(COCCCS(=O)c2ccccc2)c(=O)[nH]c1=O (stereo not given) | > 200 µM | > 200 µM |  |
| Cc1c(C(Cc2ccccc2N(C)C(=O)/C=C\C(=O)O)c2c[nH]c3ccccc23)c2ccccc2n1C (stereo not given) | > 363 µM | 22.4 µM |  |
| CC/C(Br)=C1\CC2c3c(c4ccccc4n3C)CC(C1=O)N2Cc1ccccc1 (stereo not given) |  |  | inactive |
| CC(=O)O[C@H]1CC[C@H]2[C@@H]3[C@H](C)CC4=CC(=O)CCC4[C@H]3CC[C@]12C (stereo not given in full) | > 200 µM | 69.2 µM |  |
| COc1ccc2c(=O)oc3c(OC)cc(CCN(C)C)c4c(=O)oc1c2c34 |  |  | inactive |
| Nc1c(SSc2ccc3ccccc3c2N)ccc2ccccc12 | > 50.1 µM | 14.8 µM |  |
| CN(C)c1ccc2nc(C(=O)O)c(=O)n(C)c2c1 | > 200 µM | > 200 µM |  |
| O=c1oc2ccccc2n1Cc1ccc(Cl)cc1 | > 200 µM | 79.4 µM |  |
| Nc1ccc2c(c1)C(=O)OC2(C(F)(F)F)C(F)(F)F | > 200 µM | 93.3 µM |  |
| Cc1cn(C2CC(N=[N+]=[N-])C(COC(=O)[C@H]3CCC4[C@@H]5CCC6=CC(=O)CC[C@]6(C)C5[C@@H](O)C[C@@]43C)O2)c(=O)[nH]c1=O (stereo not given in full) | 0.138 µM | 24 µM |  |

| Structure (SMILES) | EC50 | IC50 | outcome |
| --- | --- | --- | --- |
| CN(c1ccccc1)C(c1ccccc1)C(O)c1ccccc1 (stereo not given) |  |  | inactive |
| CC(=O)c1ccc(OCC(O)CO)cc1 (stereo not given) | > 617 µM | > 617 µM |  |
| COc1ccc(-c2oc3cc(O)cc(O)c3c(=O)c2OC)cc1 |  |  | inactive |
| NC1=NS(=O)(=O)Nc2nc(-c3cccs3)[nH]c21 | > 200 µM | > 200 µM |  |
| NC(=O)c1nc(-c2ccc(Cl)c(Cl)c2)nc2ccccc12 |  |  | inactive |
| Cc1nc2cc3[nH]c4ccccc4c(=O)c3cc2s1 | > 148 µM | > 148 µM |  |
| c1ccc(N2CCN(c3ccccn3)CC2)nc1 | > 100 µM | > 100 µM |  |
| Cc1ccnc(SC(F)(F)c2nc3ccccc3o2)n1 | 0.263 µM | 2 µM |  |
| C=C1C(=O)OC2CC(C)C(C(O)CC(C)O)=CCC12 (stereo not given) | > 447 µM | 8.32 µM |  |
| CCc1ccc(N=Cc2cc(OC)c(OC)c(OC)c2)cc1 | > 33.1 µM | > 33.1 µM |  |
| O=C(O)C(CP(=O)(O)O)=C(Cl)Cl | > 741 µM | > 741 µM |  |
| O=C(CCC(=O)c1ccc(Cl)cc1)NO | > 200 µM | 123 µM |  |
| O=C1C2CSCC1CN(Cc1ccccc1)C2 | > 525 µM | > 525 µM |  |
| O=C1/C(=N\O)S(=O)(=O)c2ccccc21 |  |  | inactive |
| CCC1c2ccc3cc(OC)ccc3c2CCC1(C)C(=O)O (stereo not given) |  |  | inactive |
| CC1CCC(C(C)C)C(OC2(c3ccccc3)OC(=O)c3ccccc32)C1 (stereo not given) |  |  | inactive |
| CCN(CC)c1c(C(=O)/C=C/c2ccc(OC)cc2)c(-c2ccccc2)nn(C)c1=O | > 9.12 µM | > 9.12 µM |  |
| COc1ccc2nc(NC(=O)C(=O)NNC(=O)c3ccncc3)sc2c1 | > 174 µM | 16.2 µM |  |
| OCC(O)C1OC2CC1Nc1ccccc1N2 (stereo not given) | > 200 µM | 97.7 µM |  |
| Cn1c2c(c3ccccc31)CC(=O)N1CCCCC1C21OCCO1 (stereo not given) | > 100 µM | > 100 µM |  |
